Data taken from patent US5180746A, “Aralkylamine compounds” (priority 1989, dated 1993).
Structures can show the parent of a compound that is named as a salt.

Target: T1, cholinesterase (Rattus norvegicus, UniProt P37136)
T1 construct: The S1 fraction of a cerebral cortex homogenate from male Wistar rats; from tissue; host or cells: cerebral cortex homogenate (S1 fraction), male Wistar rats
Assay: anticholinesterase activity using (acetyl-[3H])-acetylcholine, S1 fraction of rat cerebral cortex homogenate
Assay type: biochemical, male Wistar rats
Conditions: (acetyl-[3H])-acetylcholine substrate, 30 minutes incubation
Experimental: The anticholinesterase activity of the compound of the invention was evaluated using (acetyl-[^3 H])-acetylcholine. The S1 fraction of a cerebral cortex homogenate from male Wistar rats was used as the cholinesterase source, (acetyl-[^3 H])-acetylcholine as the substrate and the test compound of the invention as the test substance. The incubation was carried out for 30 minutes and after the reaction was terminated, the system was shaken with a toluene scintillator to thereby transfer [^3 H]-acetic acid into the toluene layer. The radioactivity in the toluene layer was then measured with a liquid scintillation counter to estimate the anticholinesterase activity of the test compound.
The anticholinesterase activity of the test compound was expressed in 50% inhibitory concentration (IC50).

T1 sequence (P37136 32-614): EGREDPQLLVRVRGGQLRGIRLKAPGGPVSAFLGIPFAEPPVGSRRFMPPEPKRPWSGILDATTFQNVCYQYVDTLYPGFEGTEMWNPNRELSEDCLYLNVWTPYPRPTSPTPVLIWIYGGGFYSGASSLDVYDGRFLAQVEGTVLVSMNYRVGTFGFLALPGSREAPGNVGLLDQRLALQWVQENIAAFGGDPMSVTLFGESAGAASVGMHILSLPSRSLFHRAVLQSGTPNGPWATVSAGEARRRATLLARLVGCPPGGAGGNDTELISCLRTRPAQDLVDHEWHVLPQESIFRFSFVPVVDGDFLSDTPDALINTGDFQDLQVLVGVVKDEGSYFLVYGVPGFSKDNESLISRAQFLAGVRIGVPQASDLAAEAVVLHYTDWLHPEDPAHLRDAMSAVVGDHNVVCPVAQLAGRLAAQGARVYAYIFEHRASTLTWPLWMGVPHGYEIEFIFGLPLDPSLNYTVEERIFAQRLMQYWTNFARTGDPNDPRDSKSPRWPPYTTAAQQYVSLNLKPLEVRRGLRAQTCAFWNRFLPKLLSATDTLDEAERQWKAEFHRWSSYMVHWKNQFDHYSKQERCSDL

Structure (SMILES) | IC50
CCN(CCC1Cc2cc(OC)c(OC)cc2C1=O)Cc1ccccc1OC (stereo not shown) [Example 3-5] | 680 nM
CCN(CCCCC1Cc2cc(OC)c(OC)cc2C1=O)Cc1ccccc1 (stereo not shown) [Example 3-3] | 76 nM
CCN(CCCCCCC1Cc2cc(OC)c(OC)cc2C1=O)Cc1ccccc1OC (stereo not shown) [Example 3-15] | 100 nM
CCN(CCCCCC1=Cc2cc(OC)c(OC)cc2C1)Cc1ccccc1OC [Example 5, 5,6-Dimethoxy-2-[5-[N-ethyl-N-[(2-methoxyphenyl)methyl]amino]pentyl]indene hydrochloride] | 600 nM
CCN(CCCCC1Cc2cc(OC)c(OC)c(OC)c2C1=O)Cc1ccccc1OC (stereo not shown) [Example 3-9] | 90 nM
CCN(CCCCCC1Cc2cc(OC)c(OC)cc2C1=O)Cc1ccccc1 (stereo not shown) [Example 3-1] | 120 nM
CCN(CCCCC1Cc2cc(OC)ccc2C1=O)Cc1ccccc1OC (stereo not shown) [Example 3-10] | 110 nM
CCN(CCCCC1Cc2cc(N3CCCC3)ccc2C1=O)Cc1ccccc1 (stereo not shown) [Example 7, 2-[4-[N-Ethyl-N-(phenylmethyl)amino]butyl]-5-pyrrolidino-1-indanone fumarate] | 143 nM
CCN(CCCC1Cc2cc(OC)c(OC)cc2C1=O)Cc1ccccc1OC (stereo not shown) [Example 3-6] | 14 nM
CCN(CCCCC1Cc2cc3c(cc2C1=O)OCO3)Cc1ccccc1OC (stereo not shown) [Example 3-11] | 170 nM
CCN(CCCC1Cc2cc(OC)c(OC)cc2C1=O)Cc1cccc(O)c1 (stereo not shown) [Example 3-13] | 210 nM
CCN(CCCCCC1Cc2cc(OC)c(OC)cc2C1O)Cc1ccccc1OC (stereo not shown) [Example 4, 1,2-Dihydro-5,6-dimethoxy-2-[5-[N-ethyl-N-[(2-methoxyphenyl)methyl]amino]pentyl]-1-hydroxyindene] | 160 nM
CCN(CCCC1Cc2cc(OC)c(OC)cc2C1=O)Cc1ccccc1OC (stereo not shown) [Example 3-4] | 11 nM
CCN(CCCCC1Cc2cc(OC)c(OC)cc2C1=O)Cc1cccc(O)c1 (stereo not shown) [Example 3-14] | 630 nM
CCN(CCCCC1Cc2cc(OC)c(OC)cc2C1=O)Cc1ccccc1OC (stereo not shown) [Example 3-2] | 20 nM
CCN(CCCCC1Cc2cc(OC)c(OC)cc2C1=O)Cc1cccc(OC)c1 (stereo not shown) [Example 3-8] | 110 nM
CCN(CCCCC1Cc2cc(N3CCCC3)ccc2C1=O)Cc1ccccc1OC (stereo not shown) [Example 8, 2-[4-[N-Ethyl-N-[(2-methoxyphenyl)methyl]amino]butyl]-5-pyrrolidino-1-indanone fumarate] | 81 nM
CCN(CCCCC1Cc2cc(OC)c(OC)cc2C1=O)Cc1ccccc1OC (stereo not shown) [Example 3-7] | 27 nM
CCN(CCCCCC1CCc2cc(OC)ccc2C1=O)Cc1ccccc1OC (stereo not shown) [Example 3-12] | 130 nM
